Some results are limits rather than exact numbers.

For assay [1], the target named is T1, PDE4D: catalytic domain S316-V692 (Homo sapiens, UniProt Q08499).
T1 construct: pET15S PDE4D S316-V692-X; His6 (N, cleaved yes); thrombin cleavage site (N, cleaved yes); made in house; host or cells: E. coli BL21 (DE3) RIL
Briefly: PDE4 IC50 determination by Scintillation Proximity Assay (SPA), PDE4D catalytic domain. The assay is classed as biochemical. Conditions: [3H]cAMP SPA, 30 min at 30° C. The protocol:
IC50s were determined by Scintillation Proximity Assay (SPA). The principle of the assay is based on the fact that cAMP, the PDE4 substrate, binds weakly to Yittrium Silicate SPA beads, whereas AMP, the product of PDE4 hydrolysis binds strongly. Thus, the extent of PDE4 hydrolysis of a sample of [^3H]cAMP can be measured because only the [^3H]AMP produced by PDE4 hydrolysis will bind to the SPA beads and produce a scintillation signal.
[…] Enzyme was stored in 50% glycerol at −20°. See Example 144.
Compounds tested (see Tables 5 for compounds and results) were 3-fold serially diluted 11 times in DMSO from a starting concentration of 4 mM or 40 μM, depending on compound potency. 1 μl of each dilution was transferred into duplicate wells of a white polystyrene 384-well assay plate (Corning #3710). In addition to the compound dilutions, each assay plate contained control wells with 1 μl of DMSO (to define 0% enzyme inhibition) or 1 μl of 200 μM roflumilast (to define 100% enzyme inhibition). Using a Beckman FX robot, 10 μl of [^3H] cAMP (Amersham TRK559) at […] in assay buffer (50 mM Tris, pH 7.5; 8.3 mM MgCl; 1.7 mM EGTA; 0.01% BSA) was transferred to each assay well. Next, 10 μl of PDE4 enzyme in assay buffer was added and the plates were shaken for 30 s. at 1000 rpm to start the cAMP hydrolysis reaction. The concentrations of enzyme used were: PDE4B, 80 ng/ml; PDE4D, 4 ng/ml; PDE4B2, 2.5 μl of 50% glycerol stock/ml; PDE4D5 0.083 μl of 50% glycerol stock/ml. Assay plates were covered and incubated for 30 min. at 30° C. Reactions were stopped by robotic addition of 10 μl of 5 mg/ml SPA beads (Amersham RPNQ0013) in 18 mM ZnSO4. The assay plates were covered with clear plastic film, centrifuged for 1 min. at 1000 RPM to settle the SPA beads, and counted using a Wallac TriLux scintillation counter. IC50's were calculated from the raw assay data by non-linear regression curve fitting using the Assay Explorer software package from MDL.
On the technique in general: SPA uses beads or plates that emit light when radiolabelled molecules are held near them.

Assay [2] concerns the target T2, PDE4D5: full-length human PDE4D5 isozyme (Homo sapiens, UniProt Q08499).
T2 construct: made in house; host or cells: baculovirus infected insect cells (pFastBacHT)
Briefly: PDE4 IC50 determination by Scintillation Proximity Assay (SPA), full-length PDE4D5. Conditions: cell lysate, [3H]cAMP SPA. The assay is classed as biochemical. In a few lines:
(§1)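 Unpurified enzyme from cell lysates (PDE4B2 2.5 μl, PDE4D5 0.083 μl of 50% glycerol stock/ml) hydrolysing [3H]cAMP in 50 mM Tris pH 7.5, 8.3 mM MgCl, 1.7 mM EGTA, 0.01% BSA, 30 min at 30 °C. Stopped with yttrium silicate SPA beads in 18 mM ZnSO4; bead-bound [3H]AMP counted. IC50 by non-linear regression.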

The subject of assay [3] is TNF-α release from whole blood cultures stimulated with LPS. Briefly: IC50 by TNF alpha production upon stimulation of whole blood cultures with LPS. The assay is classed as cell-based. Conditions: human whole blood (buffy coat) culture, 100 ng/ml LPS, 4 hours; read-out: h TNFα IC50. In a few lines:
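Human buffy coat, diluted with 7 volumes of RPMI/2.5% heat-inactivated FBS, was preincubated with compound (8-point 1:3 series) for 1 h at 37 °C. It was then stimulated with 100 ng/ml LPS (final) for 4 h. Supernatant TNF-α was measured by sandwich ELISA at 450 nm, and IC50 was set between DMSO (0%) and PDE4-inhibitor (100%) controls.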

Assay [4] has as its target T3, PDE4B2: full-length human PDE4B2 isozyme (Homo sapiens, UniProt Q07343).
T3 construct: made in house; host or cells: baculovirus infected insect cells (pFastBacHT)
Briefly: PDE4 IC50 determination by Scintillation Proximity Assay (SPA), full-length PDE4B2. The assay is classed as biochemical. Conditions: cell lysate, [3H]cAMP SPA. In short, it runs like this:
as §1

Assay [5] concerns the target T4, PDE4B: catalytic domain of human PDE4B from S152-S528 (Homo sapiens, UniProt Q07343).
T4 construct: The catalytic domain of human PDE4B from S152-S528; His6 (N, cleaved yes); thrombin cleavage site (N, cleaved yes); made in house; host or cells: E. coli BL21 (DE3) RIL
Nature of the assay: PDE4 IC50 determination by Scintillation Proximity Assay (SPA), PDE4B catalytic domain. The assay is classed as biochemical. Conditions: [3H]cAMP SPA, 30 min at 30° C. In a few lines: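 Human PDE4B catalytic domain (80 ng/ml) hydrolysed [3H]cAMP in 50 mM Tris pH 7.5, 8.3 mM MgCl, 1.7 mM EGTA, 0.01% BSA for 30 min at 30 °C. Reaction was stopped with yttrium silicate SPA beads in 18 mM ZnSO4, and bound [3H]AMP was counted by scintillation. IC50 came from non-linear regression.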

T4 sequence (Q07343 324-700): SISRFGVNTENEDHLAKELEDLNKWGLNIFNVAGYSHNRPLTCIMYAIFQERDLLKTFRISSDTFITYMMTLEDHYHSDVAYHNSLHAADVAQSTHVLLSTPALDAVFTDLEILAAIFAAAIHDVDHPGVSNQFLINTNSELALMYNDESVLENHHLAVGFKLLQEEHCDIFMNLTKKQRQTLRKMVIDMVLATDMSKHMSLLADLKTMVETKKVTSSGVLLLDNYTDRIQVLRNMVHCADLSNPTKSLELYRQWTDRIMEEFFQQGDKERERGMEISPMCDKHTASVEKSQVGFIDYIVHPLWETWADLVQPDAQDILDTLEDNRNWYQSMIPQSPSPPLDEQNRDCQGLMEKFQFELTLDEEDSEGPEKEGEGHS
T2 sequence (Q08499 with tags, fused parts or gaps isoform Q08499-6): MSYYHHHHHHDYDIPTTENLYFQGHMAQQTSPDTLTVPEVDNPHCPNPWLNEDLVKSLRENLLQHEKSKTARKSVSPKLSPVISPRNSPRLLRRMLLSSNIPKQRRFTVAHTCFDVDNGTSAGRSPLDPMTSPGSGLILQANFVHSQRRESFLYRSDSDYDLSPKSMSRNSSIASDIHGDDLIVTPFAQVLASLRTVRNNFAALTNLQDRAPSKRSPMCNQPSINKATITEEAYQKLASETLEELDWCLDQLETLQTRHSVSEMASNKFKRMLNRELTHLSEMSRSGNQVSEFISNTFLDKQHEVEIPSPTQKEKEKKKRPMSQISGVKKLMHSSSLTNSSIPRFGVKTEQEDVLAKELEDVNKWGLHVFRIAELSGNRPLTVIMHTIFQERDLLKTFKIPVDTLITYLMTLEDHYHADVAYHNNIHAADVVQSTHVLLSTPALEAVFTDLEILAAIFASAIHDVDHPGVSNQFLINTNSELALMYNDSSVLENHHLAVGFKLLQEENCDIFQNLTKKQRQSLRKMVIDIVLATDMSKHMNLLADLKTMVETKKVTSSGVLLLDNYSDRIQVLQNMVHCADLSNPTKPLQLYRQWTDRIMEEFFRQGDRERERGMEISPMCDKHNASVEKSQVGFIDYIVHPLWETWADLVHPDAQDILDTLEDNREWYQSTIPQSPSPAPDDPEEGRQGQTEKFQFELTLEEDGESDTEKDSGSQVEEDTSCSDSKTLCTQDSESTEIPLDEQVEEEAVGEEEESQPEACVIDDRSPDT
T3 sequence (Q07343 with tags, fused parts or gaps isoform Q07343-2): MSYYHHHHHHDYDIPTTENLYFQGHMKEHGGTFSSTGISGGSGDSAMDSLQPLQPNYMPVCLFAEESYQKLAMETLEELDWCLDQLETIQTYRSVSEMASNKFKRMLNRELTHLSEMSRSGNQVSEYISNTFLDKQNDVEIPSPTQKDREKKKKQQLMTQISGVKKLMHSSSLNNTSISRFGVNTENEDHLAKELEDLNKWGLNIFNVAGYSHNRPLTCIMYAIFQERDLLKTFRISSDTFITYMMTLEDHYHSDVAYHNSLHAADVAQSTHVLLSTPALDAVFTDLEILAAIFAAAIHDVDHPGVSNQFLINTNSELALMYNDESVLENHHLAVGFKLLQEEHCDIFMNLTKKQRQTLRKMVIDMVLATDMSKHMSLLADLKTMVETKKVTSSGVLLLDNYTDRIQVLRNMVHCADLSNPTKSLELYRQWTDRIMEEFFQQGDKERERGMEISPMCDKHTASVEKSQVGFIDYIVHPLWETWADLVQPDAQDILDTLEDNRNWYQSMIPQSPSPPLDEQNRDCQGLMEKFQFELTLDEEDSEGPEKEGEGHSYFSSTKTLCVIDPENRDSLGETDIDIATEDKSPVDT
T1 sequence (Q08499 380-756): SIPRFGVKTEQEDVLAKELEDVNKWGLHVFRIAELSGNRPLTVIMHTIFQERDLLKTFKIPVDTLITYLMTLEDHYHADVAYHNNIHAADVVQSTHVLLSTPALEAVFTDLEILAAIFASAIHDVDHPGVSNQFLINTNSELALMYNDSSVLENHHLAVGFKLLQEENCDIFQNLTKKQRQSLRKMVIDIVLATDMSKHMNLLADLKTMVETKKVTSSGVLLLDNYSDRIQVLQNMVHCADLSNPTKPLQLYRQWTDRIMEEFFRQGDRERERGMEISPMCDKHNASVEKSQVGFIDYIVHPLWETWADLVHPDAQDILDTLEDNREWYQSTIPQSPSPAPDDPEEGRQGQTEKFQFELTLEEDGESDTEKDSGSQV

As to `COc1ccc(-c2cn(S(=O)(=O)c3cccc4cc(C)cnc34)c3ccc(Cl)cc23)cc1OC1CCCC1` [Compound 95, 8-[5-Chloro-3-(3-cyclopentyloxy-4-methoxy-phenyl)-indole-1-sulfonyl]-3-methyl-quinoline], the IC50 in assay [1] is ≤ 10 µM; in assay [2], < 10 µM; in assay [3], ≤ 10 µM; in assay [4] it was < 10 µM; in assay [5] it was < 10 µM.

In the case of `COc1ccc(-c2cn(S(=O)(=O)c3ccccc3)c3ncccc23)cc1OC1CCCC1` [Compound 101, 1-Benzenesulfonyl-3-(3-cyclopentyloxy-4-methoxy-phenyl)-1H-pyrrolo[2,3-b]pyridine], the IC50 in assay [1] is ≤ 10 µM; in assay [2] it was < 10 µM; in assay [3], ≤ 10 µM; in assay [4], < 10 µM; in assay [5], < 10 µM.

On to `COc1ccc(-c2cn(C(=O)Nc3ccc4c(c3)OCO4)c3ncccc23)cc1OC` [Compound 36, 3-(3,4-Dimethoxy-phenyl)-pyrrolo[2,3-b]pyridine-1-carboxylic acidbenzo[1,3]dioxol-5-ylamide], for which the half-maximal inhibitory concentration (IC50) in assay [1] is ≤ 10 µM; in assay [2] it was < 10 µM; in assay [3], > 10 µM; in assay [4], < 10 µM; in assay [5] it was < 10 µM.

Regarding `COc1ccc(-c2cn(C(=O)c3ccnc4ccccc34)c3ncccc23)cc1OC` [Compound 115, [3-(3,4-Dimethoxy-phenyl)-pyrrolo[2,3-b]pyridin-1-yl]-quinolin-4-yl-methanone], the IC50 in assay [1] was ≤ 10 µM; in assay [2], < 10 µM; in assay [3] it was ≤ 10 µM; in assay [4], < 10 µM; in assay [5], < 10 µM.

On to `CCOc1cc(N)ccc1C(=O)n1cc(-c2ccc(OC)c(OC)c2)c2cccnc21` [Compound 144, (4-Amino-2-ethoxy-phenyl)-[3-(3,4-dimethoxy-phenyl)-pyrrolo[2,3-b]pyridin-1-yl]-methanone], for which the half-inhibitory concentration (IC50) in assay [1] was ≤ 10 µM; in assay [2], < 10 µM; in assay [3], ≤ 10 µM; in assay [4], < 10 µM; in assay [5], < 10 µM.

With `COc1ccc(-c2cn(S(=O)(=O)c3cccc4cccnc34)c3ncccc23)cc1OC1CCCC1` [Compound 102, 8-[3-(3-Cyclopentyloxy-4-methoxy-phenyl)-pyrrolo[2,3-b]pyridine-1-sulfonyl]-quinoline], the 50% inhibitory concentration (IC50) was ≤ 10 µM in assay [1]; < 10 µM in assay [2]; ≤ 10 µM in assay [3]; < 10 µM in assay [4]; < 10 µM in assay [5].

As to `CCOc1cc(NS(C)(=O)=O)ccc1C(=O)n1cc(-c2ccc(OC)c(OC)c2)c2cccnc21` [Compound 145, N-{4-[3-(3,4-Dimethoxy-phenyl)-pyrrolo[2,3-b]pyridine-1-carbonyl]-3-ethoxy-phenyl}-methanesulfonamide], the 50% inhibitory concentration (IC50) was ≤ 10 µM in assay [1]; < 10 µM in assay [2]; ≤ 10 µM in assay [3]; < 10 µM in assay [4]; < 10 µM in assay [5].

As for `COc1ccc(-c2cn(C(=O)c3cc(C)nc4ccccc34)c3ncccc23)cc1OC` [Compound 116, [3-(3,4-Dimethoxy-phenyl)-pyrrolo[2,3-b]pyridin-1-yl]-(2-methyl-quinolin-4-yl)-methanone], the IC50 in assay [1] is ≤ 10 µM; in assay [2], < 10 µM; in assay [3], ≤ 10 µM; in assay [4] it was < 10 µM; in assay [5], < 10 µM.

For the compound `COc1ccc(-c2cn(Cc3cccc([N+](=O)[O-])c3)c3ncccc23)cc1OC` [Compound 53, 3-(3,4-Dimethoxy-phenyl)-1-(3-nitro-benzyl)-1H-pyrrolo[2,3-b]pyridine], the concentration for half-maximal inhibition (IC50) was ≤ 10 µM in assay [1]; < 10 µM in assay [2]; ≤ 10 µM in assay [3]; < 10 µM in assay [4]; < 10 µM in assay [5].

With `COc1ccc(-c2cn(S(=O)(=O)Cc3ccc(Cl)cc3)c3ncccc23)cc1OC` [Compound 17, 1-(4-chloro-phenylmethanesulfonyl)-3-(3,4-dimethoxy-phenyl)-1H-pyrrolo[2,3-b]pyridine], the half-inhibitory concentration (IC50) was ≤ 10 µM in assay [1]; < 10 µM in assay [2]; ≤ 10 µM in assay [3]; < 10 µM in assay [4]; < 10 µM in assay [5].

Turning to `COc1ccc(-c2cn(C(=O)c3cccc4c(OC)cccc34)c3ncccc23)cc1OC` [Compound 65, [3-(3,4-Dimethoxy-phenyl)-pyrrolo[2,3-b]pyridin-1-yl]-(5-methoxynaphthalen-1-yl)-methanone], the IC50 in assay [1] is ≤ 10 µM; in assay [2], < 10 µM; in assay [3] it was ≤ 10 µM; in assay [4], < 10 µM; in assay [5] it was < 10 µM.

Take `COc1ccc(-c2cn(S(=O)(=O)c3cc(C)cc4cccnc34)c3ncccc23)cc1OC` [Compound 24]: the half-maximal inhibitory concentration (IC50) was ≤ 10 µM in assay [1]; < 10 µM in assay [2]; ≤ 10 µM in assay [3]; < 10 µM in assay [4]; < 10 µM in assay [5].

As to `COc1ccc(-c2cn(C(=O)c3cccnc3)c3ncccc23)cc1OC` [Compound 56, [3-(3,4-Dimethoxy-phenyl)-pyrrolo[2,3-b]pyridin-1-yl]-(3-pyridylyl)-methanone-amide], the IC50 in assay [1] was ≤ 10 µM; in assay [2], < 10 µM; in assay [3], ≤ 10 µM; in assay [4], < 10 µM; in assay [5] it was < 10 µM.

As for `COc1ccc(-c2cn(C(=O)c3cccc4cccnc34)c3ncccc23)cc1OC` [Compound 66], the IC50 in assay [1] is ≤ 10 µM; in assay [2], < 10 µM; in assay [3], ≤ 10 µM; in assay [4] it was < 10 µM; in assay [5], < 10 µM.

For the compound `COc1ccc(-c2cn(S(=O)(=O)c3cccc4cccnc34)c3ccccc23)cc1OC1CCCC1` [Compound 100, 8-[3-(3-Cyclopentyloxy-4-methoxy-phenyl)-indole-1-sulfonyl]-quinoline], the IC50 in assay [1] is ≤ 10 µM; in assay [2], < 10 µM; in assay [3], ≤ 10 µM; in assay [4], < 10 µM; in assay [5], < 10 µM.

Usually IC50 stands for the point on the concentration scale where inhibition reaches its midpoint.

Source of the values: patent publication US7605168B2 (Plexxikon, Inc., priority 2004, dated 2009).
